The text below walks through data of ChEMBL document CHEMBL1275444, “Fitness trade-offs in blaTEM evolution” (2008).

Active and inactive are the calls of the source. No cut-off for these calls is given here.

Assay [1] deals with Escherichia coli.
Description: Ratio of Kcat to Km for Escherichia coli Beta-Lactamase TEM-12
Assay [2] deals with Escherichia coli. The assay can be described thus: Antibacterial activity against Escherichia coli TP1 harboring pBR322 carrying TEM-10 assessed as inhibition of bacterial growth at >64 ug/ml after 18 hrs. It is filed as functional, organism-based.
Assay [3] deals with Escherichia coli. The assay can be described thus: Antibacterial activity against Escherichia coli TP1 harboring pBR322 carrying TEM-12 assessed as inhibition of bacterial growth at <=16 ug/ml after 18 hrs. It is filed as functional, organism-based.

On to `CC1(C)S[C@@H]2[C@H](NC(=O)[C@H](N)c3ccccc3)C(=O)N2[C@H]1C(=O)O`, for which the kcat/Km in the assay on Escherichia coli [1] was 4.2 ×10⁷ /M/s. Turning to `CC(C)(O/N=C(\C(=O)N[C@@H]1C(=O)N2C(C(=O)[O-])=C(C[n+]3ccccc3)CS[C@H]12)c1csc(N)n1)C(=O)O`, in the assay on Escherichia coli [2], the inhibition result is “Active”. The inhibition entry in the assay with Escherichia coli [3] is “inactive”.
